Data from ChEMBL document CHEMBL3044603, “In search of new herbicidal inhibitors of the non-mevalonate pathway” (Pest Manag Sci, 2013).
The source made the active and inactive calls. No cut-off for these calls is given here.

What was measured:
[1] = target: T1, 2-C-methyl-D-erythritol 2,4-cyclodiphosphate synthase, chloroplastic (Arabidopsis thaliana, UniProt Q9CAK8); assay: Inhibition of Arabidopsis thaliana IspF expressed in Escherichia coli XL1-Blue after 30 min by spectrophotometric analysis
T1 sequence (Q9CAK8 whole entry): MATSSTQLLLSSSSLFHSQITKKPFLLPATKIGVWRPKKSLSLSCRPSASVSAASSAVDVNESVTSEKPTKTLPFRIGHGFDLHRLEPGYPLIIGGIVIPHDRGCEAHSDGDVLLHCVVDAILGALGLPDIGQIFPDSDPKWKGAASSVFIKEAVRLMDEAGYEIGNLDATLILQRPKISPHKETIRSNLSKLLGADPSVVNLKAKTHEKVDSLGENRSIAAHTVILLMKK

[2] = target: T2, 2-C-methyl-D-erythritol 4-phosphate cytidylyltransferase, chloroplastic (Arabidopsis thaliana, UniProt P69834); assay: Inhibition of Arabidopsis thaliana IspD
T2 sequence (P69834 whole entry): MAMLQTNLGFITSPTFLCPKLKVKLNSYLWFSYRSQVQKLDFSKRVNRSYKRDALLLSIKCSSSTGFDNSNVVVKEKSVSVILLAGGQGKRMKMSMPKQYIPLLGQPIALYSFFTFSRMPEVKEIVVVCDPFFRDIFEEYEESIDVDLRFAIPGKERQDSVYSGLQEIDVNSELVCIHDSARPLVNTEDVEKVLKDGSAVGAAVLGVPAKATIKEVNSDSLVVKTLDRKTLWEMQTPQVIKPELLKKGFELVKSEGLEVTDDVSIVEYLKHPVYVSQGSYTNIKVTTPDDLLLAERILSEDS

[3] = target: T3, 1-deoxy-D-xylulose 5-phosphate reductoisomerase, chloroplastic (Arabidopsis thaliana, UniProt Q9XFS9); assay: Inhibition of Arabidopsis thaliana IspC expressed in Escherichia coli after 40 min by spectrophotometric analysis
T3 sequence (Q9XFS9 whole entry): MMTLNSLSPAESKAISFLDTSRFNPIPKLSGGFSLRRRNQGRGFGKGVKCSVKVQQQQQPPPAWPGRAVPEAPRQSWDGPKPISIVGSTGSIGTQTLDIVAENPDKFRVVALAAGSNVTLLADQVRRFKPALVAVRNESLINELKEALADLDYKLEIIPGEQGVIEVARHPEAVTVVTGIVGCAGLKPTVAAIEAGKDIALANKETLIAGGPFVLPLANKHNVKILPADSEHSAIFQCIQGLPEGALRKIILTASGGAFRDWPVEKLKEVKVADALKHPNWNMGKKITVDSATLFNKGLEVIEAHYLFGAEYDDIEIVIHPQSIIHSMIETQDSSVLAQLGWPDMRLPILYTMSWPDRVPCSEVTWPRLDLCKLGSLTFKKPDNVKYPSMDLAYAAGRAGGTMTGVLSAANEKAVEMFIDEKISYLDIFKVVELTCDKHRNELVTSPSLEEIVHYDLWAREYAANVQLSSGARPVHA

Lemna minor [4] = assay: Herbicidal activity against Lemna minor (common duckweed) assessed as decrease in chlorophyll fluorescence at 56 mg/l measured for 4 days by picture analysis relative to control; format: functional, organism-based
[5] = target: T4, 1-deoxy-D-xylulose-5-phosphate synthase, chloroplastic (Arabidopsis thaliana, UniProt Q38854); assay: Inhibition of Arabidopsis thaliana N-terminal GST-tagged DXS expressed in Escherichia coli BL21 GOLD (DE) using glyceraldehydephosphate and pyruvate as substrate after 90 min by spectrophotometric analysis
T4 sequence (Q38854 whole entry): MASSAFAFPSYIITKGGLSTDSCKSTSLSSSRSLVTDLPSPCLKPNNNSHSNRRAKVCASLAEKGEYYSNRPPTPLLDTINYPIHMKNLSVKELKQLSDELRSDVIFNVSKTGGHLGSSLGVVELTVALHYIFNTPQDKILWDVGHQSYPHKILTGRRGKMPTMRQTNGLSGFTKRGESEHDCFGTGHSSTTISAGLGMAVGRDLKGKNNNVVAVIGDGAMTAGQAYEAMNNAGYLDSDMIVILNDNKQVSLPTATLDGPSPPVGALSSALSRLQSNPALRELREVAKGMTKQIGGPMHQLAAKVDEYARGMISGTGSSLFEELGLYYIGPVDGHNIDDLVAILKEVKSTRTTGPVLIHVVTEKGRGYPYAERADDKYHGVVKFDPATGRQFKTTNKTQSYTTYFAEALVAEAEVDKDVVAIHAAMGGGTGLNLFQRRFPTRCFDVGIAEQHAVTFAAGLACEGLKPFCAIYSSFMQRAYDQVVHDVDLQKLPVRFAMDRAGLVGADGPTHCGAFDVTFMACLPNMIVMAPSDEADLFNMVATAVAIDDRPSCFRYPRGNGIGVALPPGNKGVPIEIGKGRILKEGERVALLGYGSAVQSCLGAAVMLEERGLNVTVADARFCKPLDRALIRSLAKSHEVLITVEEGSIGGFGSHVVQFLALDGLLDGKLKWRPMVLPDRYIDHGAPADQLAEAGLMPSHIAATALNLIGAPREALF

Lemna minor [6] = assay: Herbicidal activity against Lemna minor (common duckweed) assessed as growth inhibition at 56 mg/l measured for 6 days by picture analysis relative to control; format: functional, organism-based
[7] = target: T5, 4-diphosphocytidyl-2-C-methyl-D-erythritol kinase, chloroplastic/chromoplastic (Solanum lycopersicum, UniProt P93841); assay: Inhibition of Solanum lycopersicum (tomato) IspE
T5 sequence (P93841 whole entry): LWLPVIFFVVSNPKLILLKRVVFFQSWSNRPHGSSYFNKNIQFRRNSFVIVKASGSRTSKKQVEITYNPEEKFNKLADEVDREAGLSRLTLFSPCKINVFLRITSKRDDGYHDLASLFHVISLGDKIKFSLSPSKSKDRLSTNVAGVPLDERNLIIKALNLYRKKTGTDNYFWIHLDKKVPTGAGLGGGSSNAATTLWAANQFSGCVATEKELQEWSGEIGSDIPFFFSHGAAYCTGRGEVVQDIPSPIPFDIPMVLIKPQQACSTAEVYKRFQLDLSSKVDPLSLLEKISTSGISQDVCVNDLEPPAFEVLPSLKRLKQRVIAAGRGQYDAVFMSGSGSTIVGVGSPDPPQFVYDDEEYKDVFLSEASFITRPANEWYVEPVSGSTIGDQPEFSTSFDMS

[8] = target: T6, 4-diphosphocytidyl-2-C-methyl-D-erythritol kinase (Escherichia coli (strain K12), UniProt P62615); assay: Inhibition of Escherichia coli IspE by spectrophotometric analysis
T6 sequence (P62615 whole entry): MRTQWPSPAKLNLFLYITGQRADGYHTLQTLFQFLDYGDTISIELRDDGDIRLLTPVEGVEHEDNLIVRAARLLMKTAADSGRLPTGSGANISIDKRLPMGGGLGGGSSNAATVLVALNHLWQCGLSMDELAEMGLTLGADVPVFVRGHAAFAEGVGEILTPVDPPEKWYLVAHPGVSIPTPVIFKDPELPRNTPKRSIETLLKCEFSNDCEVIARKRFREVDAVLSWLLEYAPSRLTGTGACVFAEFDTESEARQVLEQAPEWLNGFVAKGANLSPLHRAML

Structure (SMILES)	IC50 [5]	Activity (Lemna minor [4])	growth inhibition (GI) (Lemna minor [6])	other results
CCOC(=O)C1=C(C)N=c2s/c(=C\c3cc(Br)c(O)c(Br)c3)c(=O)n2C1c1ccc(OC)cc1 (configuration not stated)	–	–	–	IC50 [1]: 3.2 µM
N#Cc1cnn2c(O)c(Cc3ccccc3)c(Cl)nc12	–	–	–	IC50 [2]: 0.035 µM
O=CN(O)CCCP(=O)(O)O [FOSMIDOMYCIN]	–	–	–	IC50 [3]: 0.1 µM
NC1=N/C(=N\NC(=O)Cc2cccc3ccccc23)c2ccccc21	–	inactive	inactive	IC50 [7]: 54 µM
COc1ccc2nc(NC(=O)COc3ccc(-c4ccccc4)cc3)sc2c1	–	inactive	inactive	IC50 [2]: 6.3 µM
Oc1c(Cc2ccccc2)c(Cl)nc2ncnn12	–	Active	Active	–
CCC1(C)Cc2c(sc3nc(SC)nc(O)c23)CS1 (configuration not stated)	–	inactive	inactive	IC50 [3]: 59 µM
COc1ccc2nc(NC(=O)c3cc(-c4ccccc4O)n[nH]3)sc2c1	–	inactive	inactive	IC50 [2]: 1.8 µM
CC1(C)C(=O)ON(Cc2ccccc2Cl)C1=O [KETOCLOMAZONE]	0.08 µM	–	–	–
NC1=N/C(=N\NC(=O)c2cc(Cl)ccn2)c2ccc3ccccc3c21	–	Active	Active	IC50 [7]: 7.2 µM
CCOc1ccc(-c2onc(C(F)(F)F)c2-c2ccc(OC)cc2)c(O)c1	61 µM	Active	Active	–
CC(C)Nc1nc(Nc2ccccc2)nc(Cl)c1-c1c(F)cccc1Cl	–	inactive	inactive	IC50 [3]: 34 µM
Nc1ccn([C@@H]2O[C@H](CNC(=O)CCc3nc4ccccc4[nH]3)[C@@H](O)[C@H]2O)c(=O)n1	–	–	–	IC50 [8]: 1.7 µM
COc1ccc(/C=N/Nc2nc3ccccc3[nH]2)cc1OCc1ccccc1	49 µM	inactive	inactive	–

More lines, main results first:

IC50 [5]	Structure (SMILES)	Activity (Lemna minor [4])	growth inhibition (GI) (Lemna minor [6])	other results
33 µM	O=C(O)c1ccc(-c2ccc(/C=N/Nc3nc4ccccc4s3)o2)cc1	inactive	inactive	–
32 µM	COc1ccc(-c2onc(C(F)(F)F)c2-c2ccc(Br)cc2)c(O)c1	Active	Active	–
